{"source": "patent US20240156785A1", "about": "“COMPOSITION FOR IMPROVING BLOOD CHOLESTEROL LEVEL” (SUNTORY HOLDINGS LIMITED, priority 2021, published 2024)", "key": {"[1]": {"tested_on": "HDL cholesterol and LDL cholesterol in the blood", "experiment": "Blood cholesterol evaluation study on human (placebo-controlled, randomized, double-blind, parallel-group)", "assay_type": "in vivo", "settings": "human adults, one capsule (20 mg L-ergothioneine) per day orally for four weeks, week 4 vs pre-testing, compared with control food group", "description": "In order to evaluate the influence of supplements containing ergothioneine on human blood cholesterol levels, a placebo-controlled, randomized, double-blind, parallel-group study was conducted on subjects including male and female adults (46 subjects in a test food group; 46 subjects in a control food group; 92 subjects in total). In this study, one capsule containing 20 mg ergothioneine (test food) or one capsule not containing ergothioneine (control food) was fed per day for four weeks. The blood cholesterol levels of the subjects were measured for pre-testing before starting the study (before starting ingestion of the test food or control food). After ingestion of the test food or control food for four weeks, the blood cholesterol levels of the subjects were measured again (testing on week 4). The cholesterol measured includes HDL cholesterol and LDL cholesterol. […] The ratio of LDL cholesterol level to HDL cholesterol level (LDL/HDL ratio) in the blood was determined for each subject from the measurements (mg/dL) of HDL cholesterol and LDL cholesterol. […] For each group, the amount of changes in LDL/HDL ratio (Δ in LDL/HDL ratio) from the time of pre-testing was determined by subtracting the LDL/HDL ratio at the time of pre-testing from the LDL/HDL ratio at the time of testing on week 4 ((LDL/HDL ratio at the time of testing on week 4)—(LDL/HDL ratio at the time of pre-testing)). […]"}, "[2]": {"tested_on": "triglyceride (neutral fat) level in plasma", "settings": "mice, oral administration, compared with mice not orally administered with ergothioneine; cited from earlier work"}}}
{"compound": "C[N+](C)(C)[C@@H](Cc1c[nH]c(=S)[nH]1)C(=O)[O-]", "note": "[L-ergothioneine]", "values": [{"measurement": "changes in HDL cholesterol level (Δ in HDL cholesterol) in the blood", "setting": "[1]", "result": "increased"}, {"measurement": "changes in LDL/HDL ratio (Δ in LDL/HDL ratio) in the blood", "setting": "[1]", "result": "reduced"}, {"measurement": "triglyceride (neutral fat) level in plasma", "setting": "[2]", "result": "lower"}]}
